# Target: Metabotropic glutamate receptor 1 (Rattus norvegicus, UniProt P23385)
# Assay: Inhibition of rat mGluR1
# Settings: read-out: IC50
# Chain of Metabotropic glutamate receptor 1 (P23385 whole entry): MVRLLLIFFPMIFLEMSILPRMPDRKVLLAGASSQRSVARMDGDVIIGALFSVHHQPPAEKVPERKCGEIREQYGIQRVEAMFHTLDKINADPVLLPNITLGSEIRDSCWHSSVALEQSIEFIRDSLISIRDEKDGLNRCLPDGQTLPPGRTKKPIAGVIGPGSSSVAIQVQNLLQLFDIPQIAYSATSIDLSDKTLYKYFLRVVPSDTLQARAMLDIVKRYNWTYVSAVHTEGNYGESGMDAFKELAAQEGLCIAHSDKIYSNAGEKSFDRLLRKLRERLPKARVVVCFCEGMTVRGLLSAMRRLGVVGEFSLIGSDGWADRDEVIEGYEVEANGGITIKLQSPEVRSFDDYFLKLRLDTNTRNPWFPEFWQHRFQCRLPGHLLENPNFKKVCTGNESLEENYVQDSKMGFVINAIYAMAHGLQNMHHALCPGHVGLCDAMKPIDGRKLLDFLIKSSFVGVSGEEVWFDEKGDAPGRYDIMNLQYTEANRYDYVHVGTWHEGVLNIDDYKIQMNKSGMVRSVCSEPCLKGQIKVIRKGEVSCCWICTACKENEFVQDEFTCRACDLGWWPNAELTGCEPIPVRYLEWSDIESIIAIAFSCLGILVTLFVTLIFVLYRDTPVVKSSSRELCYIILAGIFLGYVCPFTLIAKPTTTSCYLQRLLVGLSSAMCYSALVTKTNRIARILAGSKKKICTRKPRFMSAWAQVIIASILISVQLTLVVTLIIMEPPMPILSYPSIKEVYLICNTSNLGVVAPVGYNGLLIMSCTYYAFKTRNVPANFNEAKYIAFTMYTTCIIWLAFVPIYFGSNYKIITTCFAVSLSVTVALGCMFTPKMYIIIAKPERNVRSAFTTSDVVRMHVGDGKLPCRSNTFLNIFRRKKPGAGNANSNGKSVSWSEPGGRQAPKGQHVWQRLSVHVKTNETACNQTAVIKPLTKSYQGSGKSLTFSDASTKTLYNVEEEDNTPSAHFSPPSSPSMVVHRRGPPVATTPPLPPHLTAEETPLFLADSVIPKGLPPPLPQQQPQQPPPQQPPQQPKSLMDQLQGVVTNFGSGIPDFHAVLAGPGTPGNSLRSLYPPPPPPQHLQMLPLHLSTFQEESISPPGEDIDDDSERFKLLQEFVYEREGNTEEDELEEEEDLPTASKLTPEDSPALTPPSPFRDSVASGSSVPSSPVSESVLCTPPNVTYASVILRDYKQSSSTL
row,IC50 [µM],SMILES
1,0.13,CC1CCCCC1n1cnc2c(sc3nccc(N(C)C)c32)c1=O (stereo unspecified)
2,0.032,CN(C)c1ccnc2sc3c(=O)n(-c4ccc(C(F)(F)F)cc4)cnc3c12
3,0.044,CCc1ccc(-n2c(C)nc3c(sc4nccc(N(C)C)c43)c2=O)cc1
4,0.335,CCC(CC)n1cnc2c(sc3nccc(N(C)C)c32)c1=O
5,0.001,CN(C)c1ccnc2sc3c(=O)n(C4CCCCCC4)cnc3c12
6,0.039,COc1ccc(-n2cnc3c(sc4nccc(N(C)C)c43)c2=O)cn1
7,0.632,CN(C)c1ccnc2sc3c(=O)n(C4CC4)cnc3c12
8,0.098,CCc1ccc(-n2cnc3c(sc4nccc(NC)c43)c2=O)cc1
9,0.167,CN(C)c1ccnc2sc3c(=O)n(C4CCC4)cnc3c12
10,0.099,CCc1ccc(-n2cnc3c(sc4nccc(NCC(F)(F)F)c43)c2=O)cc1
11,0.041,CCc1ccc(-n2cnc3c(sc4nccc(NC5CC5)c43)c2=O)cc1
12,0.05,CN(C)c1ccnc2sc3c(=O)n(-c4ccccc4O)cnc3c12
13,0.306,CCc1ccc(-n2cnc3c(sc4nccc([N+](C)(C)[O-])c43)c2=O)cc1
14,0.037,CCc1ccc(-n2cnc3c(sc4nccc(N(C)CC)c43)c2=O)cc1
15,0.251,CCc1ccccc1-n1cnc2c(sc3nccc(N(C)C)c32)c1=O
16,0.122,CN(C)c1ccnc2sc3c(=O)n(-c4ccc5cc[nH]c5c4)cnc3c12
17,8.5,CN(C)c1ccnc2sc3c(=O)n(-c4ccc(C(C)(C)C)cc4)cnc3c12
18,0.009,CCc1cccc(-n2cnc3c(sc4nccc(N(C)C)c43)c2=O)c1
19,0.005,CN(C)c1ccnc2sc3c(=O)n(C4CCCC4)cnc3c12
20,0.087,CN(C)c1ccnc2sc3c(=O)n(-c4ccc(C5CC5)cc4)cnc3c12
21,0.023,CN(C)c1ccnc2sc3c(=O)n(-c4ccc(F)cc4)cnc3c12
22,0.045,CN(C)c1ccnc2sc3c(=O)n(-c4ccc(Cl)cc4Cl)cnc3c12
23,0.139,CN(C)c1ccnc2sc3c(=O)n(CC4CCCCC4)cnc3c12

row,IC50 [µM],SMILES
1,0.18,CCCc1ccc(-n2cnc3c(sc4nccc(N(C)C)c43)c2=O)cc1
2,0.003,CCc1ccc(-n2cnc3c(sc4nccc(N(C)C)c43)c2=O)cc1
3,0.281,CN(C)c1ccnc2sc3c(=O)n(Cc4ccccc4)cnc3c12
4,0.113,CCc1ccc(-n2cnc3c(sc4nccc(N5CCC5)c43)c2=O)cc1
5,0.482,CC1CCCC(n2cnc3c(sc4nccc(N(C)C)c43)c2=O)C1 (stereo unspecified)
6,0.071,CCc1ccc(-n2cnc3c(sc4nccc(N(C)CCOC)c43)c2=O)cc1
7,0.016,CN(C)c1ccnc2sc3c(=O)n(-c4ccc(Cl)cc4)cnc3c12
8,0.407,CC(C)c1ccc(-n2cnc3c(sc4nccc(N(C)C)c43)c2=O)cc1
9,0.101,CCCCc1nc2c(sc3nccc(N(C)C)c32)c(=O)n1-c1ccc(CC)cc1
10,0.017,Cc1ccc(-n2cnc3c(sc4nccc(N(C)C)c43)c2=O)c(C)c1
11,0.084,CCc1ccc(-n2c(CC)nc3c(sc4nccc(N(C)C)c43)c2=O)cc1
12,0.013,CN(C)c1ccnc2sc3c(=O)n(C4CCCCCCC4)cnc3c12
13,0.167,C[N+](C)([O-])c1ccnc2sc3c(=O)n(C4CCCCCC4)cnc3c12
14,0.005,Cc1ccc(-n2cnc3c(sc4nccc(N(C)C)c43)c2=O)cc1
15,0.076,CN(C)c1ccnc2sc3c(=O)n(C45CC6CC(CC(C6)C4)C5)cnc3c12
16,0.05,CN(C)c1ccnc2sc3c(=O)n(C4CCCCC4)cnc3c12
17,0.004,CN(C)c1ccnc2sc3c(=O)n(-c4ccc(Br)cc4)cnc3c12
18,0.01,CN(C)c1ccnc2sc3c(=O)n(N4CCCCCC4)cnc3c12
19,0.02,CN(C)c1ccnc2sc3c(=O)n(-c4ccccc4)cnc3c12
20,0.14,CC1CCC(n2cnc3c(sc4nccc(N(C)C)c43)c2=O)CC1 (stereo unspecified)
21,0.049,CCc1ccc(-n2cnc3c(sc4nccc(NCC#N)c43)c2=O)cc1
22,0.026,CN(C)c1ccnc2sc3c(=O)n(CC4CCCC4)cnc3c12

# Same assay, conditions: read-out: pIC50 (converted)
row,IC50 [µM],SMILES
1,0.0427,CCc1ccc(-n2cnc3c(sc4nccc(NCC#N)c43)c2=O)cc1

# Source: ChEMBL document CHEMBL1156680, “3D-QSAR studies of triazafluorenone inhibitors of metabotropic glutamate receptor subtype 1” (Eur J Med Chem, 2008)
